Where only a bound is given, the exact number is not on record here.

The subject of this assay is 8XTBD luciferase reporter. The assay is described as follows: YAP Reporter Assay. Format: cell-based. To be noted: Homo sapiens, HEK-293T; HEK293T cells stably transfected with 8XTBD luciferase reporter and pRLTK; 24-hr incubation; starting from 3 μM, 1:3 dilution, 10 points; read-out: Firefly Luciferase IC50. A digest of the protocol:
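HEK293T cells stably carrying the 8XTBD firefly luciferase reporter and TK-renilla control received compounds at a 10-point, 1:3 series from 3 μM (final) in quadruplicate. After 24 h at 37° C, Dual-Glo luminescence was read. IC50 and maximal inhibition were reported separately for firefly and renilla signals.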
(In general: In a reporter assay the amount or activity of a reporter protein is the signal.)
A word on the IC50: it is the concentration needed to halve the response being measured. Turning to `CNS(=O)(=O)c1ccc(NC2CCCCC2)c(-c2cc(N(C)C)ccn2)c1` [Compound 87, 4-(cyclohexylamino)-3-(4-(dimethylamino)pyridin-2-yl)-N-methylbenzenesulfonamide], the IC50 was no more than 100 nM.

`CS(=O)(=O)c1ccc(NC2CCCCC2)c(-n2ccnn2)c1` [Compound 9, N-cyclohexyl-4-(methylsulfonyl)-2-(1H-1,2,3-triazol-1-yl)aniline]: the half-inhibitory concentration (IC50) is greater than 3000 nM.

As for `CNS(=O)(=O)c1ccc(NC2CCCCC2)c(-c2nnn(-c3ccccc3)n2)c1` [Compound 34, 4-(cyclohexylamino)-N-methyl-3-(2-phenyl-2H-tetrazol-5-yl)benzenesulfonamide], the IC50 was greater than 3000 nM.

As to `CNS(=O)(=O)c1ccc(NC2CCCCC2)c(-c2nnn(C3CCN(C(C)C)CC3)n2)c1` [Compound 46, 4-(cyclohexylamino)-3-(2-(1-isopropylpiperidin-4-yl)-2H-tetrazol-5-yl)-N-methylbenzenesulfonamide], the half-inhibitory concentration (IC50) is greater than 3000 nM.

Turning to `CNS(=O)(=O)c1ccc(Nc2ccc(Cl)c(C(F)(F)F)c2)c(-c2cn(C)cn2)c1` [Compound 147, 4-[4-Chloro-3-(trifluoromethyl)anilino]-N-methyl-3-(1-methylimidazol-4-yl)benzenesulfonamide], the half-maximal inhibitory concentration (IC50) was no more than 100 nM.

On to `CNS(=O)(=O)c1ccc(Nc2cccc(F)c2F)c(-c2nnnn2C)c1` [Compound 106, 4-((2,3-difluorophenyl)amino)-N-methyl-3-(1-methyl-1H-tetrazol-5-yl)benzenesulfonamide], for which the IC50 was greater than 3000 nM.

Regarding `CNS(=O)(=O)c1ccc(NC2CCCCC2)c(-c2n[nH]c(C)n2)c1` [Compound 66, 4-(cyclohexylamino)-N-methyl-3-(5-methyl-1H-1,2,4-triazol-3-yl)benzenesulfonamide], the half-inhibitory concentration (IC50) was 100 to 1000 nM.

Consider `CNS(=O)(=O)c1ccc(NC2CCCCC2)c(-c2nnn(C3CCN(c4ccccc4)CC3)n2)c1` [Compound 38, 4-(cyclohexylamino)-N-methyl-3-(2-(1-phenylpiperidin-4-yl)-2H-tetrazol-5-yl)benzenesulfonamide], for which the IC50 was greater than 3000 nM.

In the case of `CNS(=O)(=O)c1ccc(Nc2ccc(OC(F)(F)F)cc2)c(-c2nnn(C)n2)c1` [Compound 103, N-methyl-3-(2-methyl-2H-tetrazol-5-yl)-4-((4-(trifluoromethoxy)phenyl)amino)benzenesulfonamide], the half-maximal inhibitory concentration (IC50) was no more than 100 nM.

As to `CNS(=O)(=O)c1ccc(NC2CCCCC2)c(-c2nnn(-c3cccnc3)n2)c1` [Compound 45, 4-(cyclohexylamino)-N-methyl-3-(2-(pyridin-3-yl)-2H-tetrazol-5-yl)benzenesulfonamide], the IC50 was no more than 100 nM.

With `CNS(=O)(=O)c1ccc(NC2CCCCC2)c(-c2nnnn2C2CCCNC2)c1` (centres unmarked) [Compound 75, 4-(cyclohexylamino)-N-methyl-3-(1-(piperidin-3-yl)-1H-tetrazol-5-yl)benzenesulfonamide], the concentration for half-maximal inhibition (IC50) was in the range of 1000 to 3000 nM.

On to `CNS(=O)(=O)c1ccc(NC2CCC(F)(F)CC2)c(-c2nnn(C)n2)c1` [Compound 72, 4-((4,4-difluorocyclohexyl)amino)-N-methyl-3-(2-methyl-2H-tetrazol-5-yl)benzenesulfonamide], for which the IC50 is no more than 100 nM.

For the compound `CNc1cccc(-c2cc(S(=O)(=O)NC)ccc2NC2CCCCC2)n1` [Compound 85, 4-(cyclohexylamino)-N-methyl-3-(6-(methylamino)pyridin-2-yl)benzenesulfonamide], the half-inhibitory concentration (IC50) was in the range of 1000 to 3000 nM.

For `CNS(=O)(=O)c1ccc(NC2CCCCC2)c(-c2nnn(C3CCN(S(C)(=O)=O)C3)n2)c1` (centres unmarked) [Compound 43, 4-(cyclohexylamino)-N-methyl-3-(2-(1-(methylsulfonyl)pyrrolidin-3-yl)-2H-tetrazol-5-yl)benzenesulfonamide], the 50% inhibitory concentration (IC50) is greater than 3000 nM.

Values taken from patent US11192865B2, “Benzosulfonyl compounds” (Vivace Therapeutics, Inc., priority 2017, dated 2021).
